Source: publication PMC4823954, “From fighting depression to conquering tumors: a novel tricyclic thiazepine compound as a tubulin polymerization inhibitor” (Cell Death & Disease, 2016)

Assays:
Assay in all cases: KINOMEscan
Type in all cases: binding
Settings in all cases: read-out: % Ctrl
[1] = target: T1, IKK-alpha (Homo sapiens, UniProt O15111)
T1 construct: purchased DiscoveRx KINOMEscan
Summary of the method: (§1)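 Competition binding panel of 442 non-mutant kinases: test compound at 5 and 10 μM competed with an active-site-directed ligand for 1 h with shaking. Bound kinase was eluted with 0.5 μM ligand and quantified by qPCR; %Ctrl = (compound − positive control)/(DMSO − positive control) × 100, lower meaning tighter binding.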

[2] = target: T2, PIM1 (Homo sapiens, UniProt P11309)
T2 construct: purchased DiscoveRx KINOMEscan
Summary of the method: as §1

[3] = target: T3, MUSK (Homo sapiens, UniProt O15146)
T3 construct: purchased DiscoveRx KINOMEscan
Summary of the method: as §1

[4] = target: T4, LIMK1 (Homo sapiens, UniProt P53667)
T4 construct: purchased DiscoveRx KINOMEscan
Summary of the method: as §1

[5] = target: T5, SYK (Homo sapiens, UniProt P43405)
T5 construct: purchased DiscoveRx KINOMEscan
Summary of the method: as §1

[6] = target: T6, NIM1 (Homo sapiens, UniProt Q8IY84)
T6 construct: purchased DiscoveRx KINOMEscan
Summary of the method: as §1

[7] = target: T7, ACVR1B (Homo sapiens, UniProt P36896)
T7 construct: purchased DiscoveRx KINOMEscan
Summary of the method: as §1

[8] = target: T8, ULK3 (Homo sapiens, UniProt Q6PHR2)
T8 construct: purchased DiscoveRx KINOMEscan
Summary of the method: as §1

[9] = target: T9, HIPK3 (Homo sapiens, UniProt Q9H422)
T9 construct: purchased DiscoveRx KINOMEscan
Summary of the method: as §1

[10] = target: T10, EPHA4 (Homo sapiens, UniProt P54764)
T10 construct: purchased DiscoveRx KINOMEscan
Summary of the method: as §1

[11] = target: T11, MET(Y1235D) (Homo sapiens, UniProt P08581, Y1235D)
T11 construct: purchased DiscoveRx KINOMEscan

[12] = target: T12, INSRR (Homo sapiens, UniProt P14616)
T12 construct: purchased DiscoveRx KINOMEscan
Summary of the method: as §1

[13] = target: T13, CDK4-cyclinD1 (Homo sapiens, UniProt P11802)
T13 construct: purchased DiscoveRx KINOMEscan
Summary of the method: as §1

[14] = target: T14, EGFR(L858R,T790M) (Homo sapiens, UniProt P00533, L858R/T790M)
T14 construct: purchased DiscoveRx KINOMEscan

[15] = target: T15, PKAC-beta (Homo sapiens, UniProt P22694)
T15 construct: purchased DiscoveRx KINOMEscan
Summary of the method: as §1

[16] = target: T16, AURKB (Homo sapiens, UniProt Q96GD4)
T16 construct: purchased DiscoveRx KINOMEscan
Summary of the method: as §1

[17] = target: T17, PHKG1 (Homo sapiens, UniProt Q16816)
T17 construct: purchased DiscoveRx KINOMEscan
Summary of the method: as §1

[18] = target: T18, NEK2 (Homo sapiens, UniProt P51955)
T18 construct: purchased DiscoveRx KINOMEscan
Summary of the method: as §1

[19] = target: T19, LATS1 (Homo sapiens, UniProt O95835)
T19 construct: purchased DiscoveRx KINOMEscan
Summary of the method: as §1

[20] = target: T20, YSK4 (Homo sapiens, UniProt Q56UN5)
T20 construct: purchased DiscoveRx KINOMEscan
Summary of the method: as §1

[21] = target: T21, PIK4CB (Homo sapiens, UniProt Q9UBF8)
T21 construct: purchased DiscoveRx KINOMEscan
Summary of the method: as §1

[22] = target: T22, PAK3 (Homo sapiens, UniProt O75914)
T22 construct: purchased DiscoveRx KINOMEscan
Summary of the method: as §1

[23] = target: T23, NLK (Homo sapiens, UniProt Q9UBE8)
T23 construct: purchased DiscoveRx KINOMEscan
Summary of the method: as §1

[24] = target: T24, MYLK (Homo sapiens, UniProt Q15746)
T24 construct: purchased DiscoveRx KINOMEscan
Summary of the method: as §1

[25] = target: T25, CSNK1G1 (Homo sapiens, UniProt Q9HCP0)
T25 construct: purchased DiscoveRx KINOMEscan
Summary of the method: as §1

[26] = target: T26, MINK (Homo sapiens, UniProt Q8N4C8)
T26 construct: purchased DiscoveRx KINOMEscan
Summary of the method: as §1

[27] = target: T27, YANK3 (Homo sapiens, UniProt Q86UX6)
T27 construct: purchased DiscoveRx KINOMEscan
Summary of the method: as §1

[28] = target: T28, LRRK2 (Homo sapiens, UniProt Q5S007)
T28 construct: purchased DiscoveRx KINOMEscan
Summary of the method: as §1

[29] = target: T29, IKK-beta (Homo sapiens, UniProt O14920)
T29 construct: purchased DiscoveRx KINOMEscan
Summary of the method: as §1

[30] = target: T30, CSNK1A1 (Homo sapiens, UniProt P48729)
T30 construct: purchased DiscoveRx KINOMEscan
Summary of the method: as §1

T18 sequence (P51955 whole entry): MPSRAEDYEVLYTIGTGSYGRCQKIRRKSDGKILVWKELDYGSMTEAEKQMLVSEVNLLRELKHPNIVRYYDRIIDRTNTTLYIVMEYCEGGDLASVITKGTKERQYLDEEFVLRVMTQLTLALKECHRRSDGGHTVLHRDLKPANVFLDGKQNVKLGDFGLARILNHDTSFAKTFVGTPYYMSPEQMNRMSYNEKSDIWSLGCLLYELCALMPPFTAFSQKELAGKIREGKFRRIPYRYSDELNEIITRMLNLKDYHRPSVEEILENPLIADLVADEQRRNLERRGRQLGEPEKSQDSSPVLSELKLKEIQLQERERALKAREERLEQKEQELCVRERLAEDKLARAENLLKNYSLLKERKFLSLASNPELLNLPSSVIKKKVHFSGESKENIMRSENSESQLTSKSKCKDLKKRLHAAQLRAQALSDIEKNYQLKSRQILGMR
T12 sequence (P14616 27-1297): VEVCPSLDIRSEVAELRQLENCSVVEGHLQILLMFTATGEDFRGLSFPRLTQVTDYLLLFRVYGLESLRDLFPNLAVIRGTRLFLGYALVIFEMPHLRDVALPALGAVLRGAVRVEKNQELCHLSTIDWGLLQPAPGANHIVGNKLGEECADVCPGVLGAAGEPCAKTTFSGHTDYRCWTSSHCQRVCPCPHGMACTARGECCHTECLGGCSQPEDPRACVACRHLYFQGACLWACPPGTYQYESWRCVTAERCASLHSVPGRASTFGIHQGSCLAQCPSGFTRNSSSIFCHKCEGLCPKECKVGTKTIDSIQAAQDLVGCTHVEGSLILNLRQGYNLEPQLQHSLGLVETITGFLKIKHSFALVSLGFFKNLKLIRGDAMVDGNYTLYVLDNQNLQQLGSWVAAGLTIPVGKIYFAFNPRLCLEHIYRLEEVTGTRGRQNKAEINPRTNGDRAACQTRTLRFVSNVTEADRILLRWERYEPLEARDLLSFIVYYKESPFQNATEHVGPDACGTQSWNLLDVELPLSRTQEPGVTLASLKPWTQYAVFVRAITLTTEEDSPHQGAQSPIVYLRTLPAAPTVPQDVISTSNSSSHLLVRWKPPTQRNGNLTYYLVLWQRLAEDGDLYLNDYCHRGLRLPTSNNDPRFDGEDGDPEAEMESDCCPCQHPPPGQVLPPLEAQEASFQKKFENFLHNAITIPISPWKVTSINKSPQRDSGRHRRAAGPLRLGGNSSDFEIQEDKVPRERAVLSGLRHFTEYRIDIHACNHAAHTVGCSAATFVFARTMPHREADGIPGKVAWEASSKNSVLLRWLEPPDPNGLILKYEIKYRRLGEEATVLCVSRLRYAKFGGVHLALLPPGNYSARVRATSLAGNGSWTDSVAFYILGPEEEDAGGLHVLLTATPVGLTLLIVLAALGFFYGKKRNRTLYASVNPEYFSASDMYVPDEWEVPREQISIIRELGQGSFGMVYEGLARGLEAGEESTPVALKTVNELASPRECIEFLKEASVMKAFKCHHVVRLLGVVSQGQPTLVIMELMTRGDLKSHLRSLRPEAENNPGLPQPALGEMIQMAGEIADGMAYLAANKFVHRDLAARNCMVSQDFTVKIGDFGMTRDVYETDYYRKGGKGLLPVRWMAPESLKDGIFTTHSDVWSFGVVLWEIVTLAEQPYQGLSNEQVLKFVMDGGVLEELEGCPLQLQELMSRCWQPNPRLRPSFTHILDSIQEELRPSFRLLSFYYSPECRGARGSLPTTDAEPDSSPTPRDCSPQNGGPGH
T29 sequence (O14920 whole entry): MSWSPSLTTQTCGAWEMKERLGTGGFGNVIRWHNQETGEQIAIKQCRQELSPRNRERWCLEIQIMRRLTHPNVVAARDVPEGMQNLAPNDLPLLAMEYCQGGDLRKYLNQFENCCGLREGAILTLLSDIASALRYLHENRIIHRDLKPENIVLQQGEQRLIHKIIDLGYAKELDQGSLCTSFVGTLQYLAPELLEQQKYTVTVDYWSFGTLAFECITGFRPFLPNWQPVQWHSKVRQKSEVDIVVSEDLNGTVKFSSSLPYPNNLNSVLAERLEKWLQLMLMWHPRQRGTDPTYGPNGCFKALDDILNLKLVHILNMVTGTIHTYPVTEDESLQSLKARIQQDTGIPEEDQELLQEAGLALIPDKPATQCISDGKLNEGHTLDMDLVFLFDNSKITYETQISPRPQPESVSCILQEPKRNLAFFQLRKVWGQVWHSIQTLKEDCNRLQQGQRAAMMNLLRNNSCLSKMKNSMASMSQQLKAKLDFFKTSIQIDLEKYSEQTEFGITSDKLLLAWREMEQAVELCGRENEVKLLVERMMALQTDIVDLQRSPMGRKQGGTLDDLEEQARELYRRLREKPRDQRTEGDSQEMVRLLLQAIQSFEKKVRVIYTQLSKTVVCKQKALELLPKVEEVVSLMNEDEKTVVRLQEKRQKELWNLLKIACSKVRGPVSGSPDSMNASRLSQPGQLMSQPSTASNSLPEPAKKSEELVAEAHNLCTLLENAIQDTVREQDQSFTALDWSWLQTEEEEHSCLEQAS
T26 sequence (Q8N4C8 whole entry): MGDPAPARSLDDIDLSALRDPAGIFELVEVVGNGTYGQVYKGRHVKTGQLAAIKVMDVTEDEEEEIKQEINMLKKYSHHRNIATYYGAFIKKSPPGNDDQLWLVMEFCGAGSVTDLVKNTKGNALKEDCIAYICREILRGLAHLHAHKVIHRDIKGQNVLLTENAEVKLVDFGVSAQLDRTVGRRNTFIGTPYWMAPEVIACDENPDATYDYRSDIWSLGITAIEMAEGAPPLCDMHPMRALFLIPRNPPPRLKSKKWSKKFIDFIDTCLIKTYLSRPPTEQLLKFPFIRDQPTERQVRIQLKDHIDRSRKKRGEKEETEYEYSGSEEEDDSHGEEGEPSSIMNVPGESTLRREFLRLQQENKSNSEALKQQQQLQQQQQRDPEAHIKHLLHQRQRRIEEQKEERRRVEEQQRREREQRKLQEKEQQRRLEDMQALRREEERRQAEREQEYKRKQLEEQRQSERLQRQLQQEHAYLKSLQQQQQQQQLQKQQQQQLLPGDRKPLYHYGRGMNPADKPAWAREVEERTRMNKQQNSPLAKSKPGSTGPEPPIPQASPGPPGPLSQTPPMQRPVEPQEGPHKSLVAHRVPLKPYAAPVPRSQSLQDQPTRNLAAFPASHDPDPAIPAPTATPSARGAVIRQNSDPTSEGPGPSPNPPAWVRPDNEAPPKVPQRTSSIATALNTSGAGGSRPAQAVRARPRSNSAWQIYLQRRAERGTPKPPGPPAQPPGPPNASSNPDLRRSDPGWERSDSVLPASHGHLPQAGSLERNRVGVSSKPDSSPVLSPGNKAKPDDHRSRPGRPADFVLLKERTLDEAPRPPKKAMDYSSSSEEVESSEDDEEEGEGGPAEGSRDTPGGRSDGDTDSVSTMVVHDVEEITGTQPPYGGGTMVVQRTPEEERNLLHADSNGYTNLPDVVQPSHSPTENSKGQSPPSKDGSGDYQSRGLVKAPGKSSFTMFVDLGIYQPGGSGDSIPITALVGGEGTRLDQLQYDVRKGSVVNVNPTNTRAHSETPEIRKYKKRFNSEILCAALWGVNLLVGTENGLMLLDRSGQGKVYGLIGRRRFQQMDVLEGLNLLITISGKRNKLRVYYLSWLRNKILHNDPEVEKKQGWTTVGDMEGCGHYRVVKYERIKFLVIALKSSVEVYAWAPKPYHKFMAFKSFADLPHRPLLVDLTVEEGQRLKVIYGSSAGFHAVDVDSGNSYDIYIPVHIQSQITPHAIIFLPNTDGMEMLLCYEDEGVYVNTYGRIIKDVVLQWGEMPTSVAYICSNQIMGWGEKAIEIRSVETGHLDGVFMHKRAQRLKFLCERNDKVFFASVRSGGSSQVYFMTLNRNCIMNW
T17 sequence (Q16816 whole entry): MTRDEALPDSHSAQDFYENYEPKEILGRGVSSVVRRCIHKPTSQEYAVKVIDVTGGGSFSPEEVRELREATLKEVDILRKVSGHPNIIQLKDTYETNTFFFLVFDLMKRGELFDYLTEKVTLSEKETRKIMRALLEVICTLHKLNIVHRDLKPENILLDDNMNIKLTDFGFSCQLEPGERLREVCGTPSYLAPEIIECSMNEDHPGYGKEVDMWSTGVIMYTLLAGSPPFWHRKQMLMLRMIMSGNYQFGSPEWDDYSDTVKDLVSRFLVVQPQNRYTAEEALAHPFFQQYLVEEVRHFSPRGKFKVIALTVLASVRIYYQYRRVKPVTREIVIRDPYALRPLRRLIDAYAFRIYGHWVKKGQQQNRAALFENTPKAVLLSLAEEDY
T21 sequence (Q9UBF8 whole entry): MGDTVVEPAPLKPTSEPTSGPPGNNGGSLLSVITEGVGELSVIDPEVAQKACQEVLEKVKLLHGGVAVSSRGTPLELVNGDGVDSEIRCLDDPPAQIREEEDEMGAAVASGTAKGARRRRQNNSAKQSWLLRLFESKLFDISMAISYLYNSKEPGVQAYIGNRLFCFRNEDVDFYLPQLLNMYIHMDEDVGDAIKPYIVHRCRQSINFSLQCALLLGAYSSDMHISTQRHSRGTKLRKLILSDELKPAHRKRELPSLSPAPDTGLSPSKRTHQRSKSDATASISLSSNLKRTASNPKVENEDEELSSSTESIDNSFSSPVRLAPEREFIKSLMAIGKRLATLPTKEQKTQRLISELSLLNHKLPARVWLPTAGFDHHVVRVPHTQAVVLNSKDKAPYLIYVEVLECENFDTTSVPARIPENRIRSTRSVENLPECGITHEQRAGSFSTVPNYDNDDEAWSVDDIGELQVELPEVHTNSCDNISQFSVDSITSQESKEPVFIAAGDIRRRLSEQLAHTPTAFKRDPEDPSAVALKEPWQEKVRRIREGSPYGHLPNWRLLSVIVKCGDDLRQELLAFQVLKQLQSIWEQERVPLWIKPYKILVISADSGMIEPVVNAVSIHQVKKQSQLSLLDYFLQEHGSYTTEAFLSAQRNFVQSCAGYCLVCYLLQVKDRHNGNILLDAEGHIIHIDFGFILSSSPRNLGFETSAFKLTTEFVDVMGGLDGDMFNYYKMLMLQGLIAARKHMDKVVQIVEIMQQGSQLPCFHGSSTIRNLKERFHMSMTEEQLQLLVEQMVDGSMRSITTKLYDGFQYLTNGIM

Cc1ccc(C2=Nc3cccnc3S(=O)(=O)c3ccccc32)cc1 [TBPT, 6-(p-tolyl)benzo[f] pyrido[2,3-b][1,4] thiazepine 11,11-dioxide]
100%: remaining binding at 5 µM ([3]; 5 μM) | remaining binding at 10 µM ([3]; 10 μM) | remaining binding at 5 µM ([4]; 5 μM) | remaining binding at 10 µM ([4]; 10 μM) | remaining binding at 5 µM ([5]; 5 μM) | remaining binding at 10 µM ([5]; 10 μM) | remaining binding at 5 µM ([8]; 5 μM) | remaining binding at 10 µM ([8]; 10 μM) | remaining binding at 5 µM ([9]; 5 μM) | remaining binding at 10 µM ([9]; 10 μM) | remaining binding at 5 µM ([10]; 5 μM) | remaining binding at 5 µM ([12]; 5 μM) | remaining binding at 10 µM ([12]; 10 μM) | remaining binding at 5 µM ([13]; 5 μM) | remaining binding at 10 µM ([15]; 10 μM) | remaining binding at 5 µM ([17]; 5 μM) | remaining binding at 5 µM ([19]; 5 μM) | remaining binding at 10 µM ([19]; 10 μM) | remaining binding at 5 µM ([21]; 5 μM) | remaining binding at 5 µM ([22]; 5 μM) | remaining binding at 10 µM ([22]; 10 μM) | remaining binding at 5 µM ([24]; 5 μM) | remaining binding at 5 µM ([25]; 5 μM) | remaining binding at 10 µM ([28]; 10 μM) | remaining binding at 5 µM ([30]; 5 μM)
79%: remaining binding at 10 µM ([13]; 10 μM)
98%: remaining binding at 5 µM ([7]; 5 μM) | remaining binding at 5 µM ([16]; 5 μM) | remaining binding at 5 µM ([20]; 5 μM) | remaining binding at 10 µM ([20]; 10 μM) | remaining binding at 10 µM ([29]; 10 μM)
85%: remaining binding at 10 µM ([11]; 10 μM)
81%: remaining binding at 10 µM ([18]; 10 μM) | remaining binding at 10 µM ([24]; 10 μM)
91%: remaining binding at 5 µM ([2]; 5 μM) | remaining binding at 10 µM ([7]; 10 μM)
83%: remaining binding at 5 µM ([23]; 5 μM) | remaining binding at 10 µM ([26]; 10 μM)
75%: remaining binding at 10 µM ([1]; 10 μM)
93%: remaining binding at 10 µM ([21]; 10 μM)
86%: remaining binding at 10 µM ([30]; 10 μM)
92%: remaining binding at 10 µM ([16]; 10 μM) | remaining binding at 5 µM ([18]; 5 μM)
56%: remaining binding at 5 µM ([1]; 5 μM)
90%: remaining binding at 10 µM ([2]; 10 μM) | remaining binding at 5 µM ([6]; 5 μM)
96%: remaining binding at 10 µM ([10]; 10 μM) | remaining binding at 5 µM ([15]; 5 μM) | remaining binding at 10 µM ([27]; 10 μM)
89%: remaining binding at 5 µM ([11]; 5 μM) | remaining binding at 10 µM ([23]; 10 μM) | remaining binding at 10 µM ([25]; 10 μM) | remaining binding at 5 µM ([26]; 5 μM)
78%: remaining binding at 10 µM ([6]; 10 μM) | remaining binding at 5 µM ([14]; 5 μM)
88%: remaining binding at 10 µM ([14]; 10 μM) | remaining binding at 5 µM ([27]; 5 μM)
94%: remaining binding at 10 µM ([17]; 10 μM) | remaining binding at 5 µM ([28]; 5 μM)
84%: remaining binding at 5 µM ([29]; 5 μM)
